According to patent US4683198A, “Novel maltose dehydrogenase, process for its production, and analytical method using the same” (Toyo Jozo Kabushiki Kaisha, priority 1983, dated 1987):

System: maltose dehydrogenase (acceptor)
Test: Substrate specificity of maltose dehydrogenase (acceptor), PMS/NTB assay at 550 nm
Format: biochemical, Staphylococcus sp. B-0875
Conditions: substrate each 0.1M, 0.1 ml, in place of maltose; 37° C., 10 min
Method: 20 mM phosphate buffer (pH 7.5)
0.1% bovine serum albumin
0.025% nitrotetrazolium blue (NTB)
0.001% phenazine methosulfate (PMS: hydrogen acceptor)
(§1) The above reaction mixture (1.0 ml) in a small test tube is pre-incubated at 37° C. Enzyme solution (10 μl) is added thereto and incubated at 37° C. for 10 min. The reaction is stopped by adding 0.1N HCl (2.0 ml) and the optical density at 550 nm (As) is measured. Distilled water (10 μl) is added as a control and the amount measured at 550 nm (Ab).
One unit is defined by the amount of enzyme which oxidizes (dehydrogenates)1 μmole of maltose in one minute and enzyme activity is calculated by the following equation: [formula]
Maltose in the above assay method is replaced by the substrates in Table 2 (each 0.1M, 0.1 ml) and assayed according to the above assay method.

Compound | Relative Activity (%)
OC[C@H]1O[C@H](O[C@H]2[C@H](O)[C@@H](O)[C@@H](O[C@H]3[C@H](O)[C@@H](O)[C@@H](O[C@H]4[C@H](O)[C@@H](O)C(O)O[C@@H]4CO)O[C@@H]3CO)O[C@@H]2CO)[C@H](O)[C@@H](O)[C@@H]1O (stereo partly drawn) [maltotetraose] | 60.3%
O[C@H]1[C@H](O)[C@@H](O)[C@H](O)[C@@H](O)[C@H]1O [inositol] | 0%
OC[C@H]1O[C@H](O[C@H]2[C@H](O)[C@@H](O)[C@@H](O[C@H]3[C@H](O)[C@@H](O)[C@@H](O[C@H]4[C@H](O)[C@@H](O)[C@@H](O[C@H]5[C@H](O)[C@@H](O)C(O)O[C@@H]5CO)O[C@@H]4CO)O[C@@H]3CO)O[C@@H]2CO)[C@H](O)[C@@H](O)[C@@H]1O (stereo partly drawn) [maltopentaose] | 36.4%
OC[C@H]1O[C@H](OC[C@H]2O[C@H](O[C@]3(CO)O[C@H](CO)[C@@H](O)[C@@H]3O)[C@H](O)[C@@H](O)[C@@H]2O)[C@H](O)[C@@H](O)[C@H]1O [raffinose] | 0%
O=C[C@@H](O)[C@@H](O)[C@H](O)[C@H](O)CO [mannose] | 52.4%
OCC(O)CO [glycerol] | 0%
OC[C@H]1O[C@H](O[C@H]2[C@H](O)[C@@H](O)[C@@H](O[C@H]3[C@H](O)[C@@H](O)C(O)O[C@@H]3CO)O[C@@H]2CO)[C@H](O)[C@@H](O)[C@@H]1O (stereo partly drawn) [maltotriose] | 77.4%
O=C[C@H](O)[C@@H](O)[C@H](O)CO [xylose] | 53.7%
O=C[C@H](O)[C@@H](O)[C@H](O)[C@H](O)CO [glucose] | 80.0%
O=C(CO)[C@@H](O)[C@H](O)[C@H](O)CO [fructose] | 31.4%
OC[C@H]1O[C@H](O[C@H]2[C@H](O)[C@@H](O)[C@@H](O[C@H]3[C@H](O)[C@@H](O)[C@@H](O[C@H]4[C@H](O)[C@@H](O)[C@@H](O[C@H]5[C@H](O)[C@@H](O)[C@@H](O[C@H]6[C@H](O)[C@@H](O)C(O)O[C@@H]6CO)O[C@@H]5CO)O[C@@H]4CO)O[C@@H]3CO)O[C@@H]2CO)[C@H](O)[C@@H](O)[C@@H]1O (stereo partly drawn) [maltohexaose] | 28.6%
OC[C@H]1O[C@H](O[C@H]2[C@H](O)[C@@H](O)[C@@H](O[C@H]3[C@H](O)[C@@H](O)[C@@H](O[C@H]4[C@H](O)[C@@H](O)[C@@H](O[C@H]5[C@H](O)[C@@H](O)[C@@H](O[C@H]6[C@H](O)[C@@H](O)[C@@H](O[C@H]7[C@H](O)[C@@H](O)C(O)O[C@@H]7CO)O[C@@H]6CO)O[C@@H]5CO)O[C@@H]4CO)O[C@@H]3CO)O[C@@H]2CO)[C@H](O)[C@@H](O)[C@@H]1O (stereo partly drawn) [maltoheptaose] | 22.4%
O=C[C@H](O)[C@@H](O)[C@@H](O)[C@H](O)CO [galactose] | 56.1%
OC[C@H]1O[C@@](CO)(O[C@H]2O[C@H](CO)[C@@H](O)[C@H](O)[C@H]2O)[C@@H](O)[C@@H]1O [sucrose] | 0%
CCO [ethanol] | 0%
OC[C@@H](O)[C@@H](O)[C@H](O)[C@@H](O)CO [sorbitol] | 0%
OC[C@H]1O[C@@H](O[C@H]2[C@H](O)[C@@H](O)C(O)O[C@@H]2CO)[C@H](O)[C@@H](O)[C@H]1O (stereo partly drawn) [lactose] | 58.2%

System: maltose dehydrogenase (acceptor)
Test: not given
Format: biochemical, Staphylococcus sp. B-0875
Conditions: not given
Method: as §1
Metallic ions, EDTA or KCN shown in Table 4 is added to the reaction mixture as in the assay method, and the effect thereof is measured. The results are shown in […]

Compound | Relative Activity (%)
O=C(O)CN(CCN(CC(=O)O)CC(=O)O)CC(=O)O [EDTA] | 73%

Same assay, conditions: 1.0 mM additive in reaction mixture; no addition = 100

Compound | Relative Activity (%)
[N-]=[N+]=[N-].[Na+] [NaN3] | 95%
[Cl-].[Cl-].[Mg+2] [MgCl2] | 106%
[Cl][Mn][Cl] [MnCl2] | 13.4%
[Cl-].[Li+] [LiCl] | 95%
[Cl-].[Cl-].[Co+2] [CoCl2] | 17.9%
[Ba+2].[Cl-].[Cl-] [BaCl2] | 61.2%
[Cl][Cu][Cl] [CuCl2] | 0%
[Ca+2].[Cl-].[Cl-] [CaCl2] | 101%
[Cl-].[Cl-].[Zn+2] [ZnCl2] | 4.5%
